Legend:
[1] = test system: client-owned dogs with persistent pathologic renal proteinuria due to CKD; test: Prospective, block-randomized, double-blind clinical trial of telmisartan versus enalapril; UPC measurement (phases I-III); assay type: in vivo, dog; conditions: for Average of UPC change day 30 / Average of UPC change day 60 / Average of UPC change day 90: change from baseline; for Average of UPC change day 30: day 30, all dogs; for Average of UPC change day 60: day 60, all dogs; for Average of UPC change day 60 / Average of UPC change day 90: up-titration allowed; for Average of UPC change day 90: day 90, all dogs; for proportion of dogs that experienced 50% reduction in UPC at day 30: telmisartan 1 mg/kg PO q 24 h, enalapril 0.5 mg/kg PO q 12 h, 16/20 versus 5/17 dogs, P=0.003; for Average of UPC change in dogs with added drug at Day 90, day 120: the other drug additionally administered between day 90 and day 120; for Average of percent UPC change day 30 / Average of percent UPC change day 60 / Average of percent UPC change day 90 / Average of percent UPC change day 120: percent change from baseline; for Average of percent UPC change day 120: the other drug (telmisartan or enalapril) additionally administered between day 90 and day 120
Text: Experimental Methods and Design. A prospective, block-randomized, double-blind clinical trial has been carried out. Fifty-four client-owned dogs with persistent pathologic renal proteinuria have been recruited over a 2-year period.
Animals. Azotemic and non-azotemic dogs (N=54) with hypertensive and non-hypertensive CKD have been recruited prospectively from patients presented to the hospital. Dogs included as cases will have confirmed persistent pathologic renal proteinuria due to CKD; in order to be classified as such, fulfillment of the criteria described below will be required.
Inclusion criteria. […] Abdominal ultrasound findings consistent with CKD (bilaterally small, irregular kidneys) and absence of renal neoplasia have also been documented.
Exclusion criteria. […] Dogs with suspected or confirmed hyper-adrenocorticism and diabetes mellitus have been included if their disease is considered well controlled with medical therapy.
Patient grouping for block randomization: Once included in the study and based on the presence/degree of azotemia, dogs have been grouped according to the International Renal Interest Society (IRIS) classification scheme for CKD. Those classified as IRIS stages 2-4 (serum creatinine ≥1.4 mg/dL with inappropriately dilute urine [USG<1.030]) have been considered azotemic (AZ), and those classified as IRIS stage 1 (creatinine <1.4 mg/dL) have been considered non-azotemic (non-AZ). Within each of these two groups, dogs will then be stratified according to IRIS recommendations for arterial pressure (AP) substaging. According to this scheme, dogs with persistent average indirect arterial systolic BP<150 mm Hg will be classified as AP0 (minimal risk for target organ damage). Those with persistent average indirect arterial systolic BP150 mm Hg have been classified as AP1-3 (at risk for target organ damage). Four groups will thus be identified:
Baseline. On inclusion (day 0), all owners have been required to read/sign a form consenting to their pets' participation in the study. The following baseline data have been collected for each case: full physical examination (performed by one of the study investigators), fundic examination, blood pressure measurement, serum chemistry panel, urinalysis, abdominal ultrasound, UPC and urine culture. The results of screening tests, if performed within 2 weeks of inclusion in the study, may be used as baseline information. Baseline UPC has been defined as the average of two measurements, taken 2 weeks apart, prior to enrollment.
ARB/ACEi therapy. […] Owners have been provided with appropriate contact numbers in the event of an emergency.
Antihypertensive/other therapy. For dogs that are classified as AP3 (SBP180 mmHg; 200 mmHg in sighthounds), a calcium channel blocker (CCB; amlodipine, 0.1 mg/kg PO q 24 hours) has been administered contemporaneously. […] All dogs have been started or maintained on a commercially available diet formulated to be low in phosphorus and protein, for at least 1 month prior to enrollment.
Monitoring: The monitoring protocol followed the recommendations of the IRIS Canine GN Study Group Standard Therapy Subgroup. All dogs have been rechecked on day 7, at which time physical examination, SBP, serum creatinine (sCr) and serum potassium (K) have been evaluated. An increase in sCr of >30% compared to baseline or identification of moderate/severe hyperkalemia (serum K>6.5 mmol/L) or systolic hypotension (SBP<120) has prompt the investigator unmasking and removal of the patient from the study. For dogs in which average SBP of approximately 180 mm Hg was reliably identified (i.e. dogs classified as AP3), amlodipine will be up-titrated to 0.1 mg/kg PO BID. Thereafter, dogs classified as AP3 have been rechecked at 7-day intervals to ensure efficacy of therapy with adjustment of antihypertensive therapy.

[2] = test system: naturally occurring proteinuria; conditions: cited from earlier work
[3] = dogs without added drug at day 90

Row | SMILES | Average of UPC change day 30 [1] | Average of UPC change day 60 [1] | Average of UPC change day 90 [1] | proportion of dogs that experienced 50% reduction in UPC at day 30 [1] | Average of UPC change in dogs with added drug at Day 90, day 30 [1] | Average of UPC change in dogs with added drug at Day 90, day 60 [1] | Average of UPC change in dogs with added drug at Day 90, day 90 [1] | Average of UPC change in dogs with added drug at Day 90, day 120 ([1]; day 120) | Average of UPC change in dogs without added drug at Day 90, day 30 [1, 3] | Average of UPC change in dogs without added drug at Day 90, day 60 [1, 3] | Average of UPC change in dogs without added drug at Day 90, day 90 [1, 3] | Average of UPC change in dogs without added drug at Day 90, day 120 ([1]; dogs without added drug at day 90, day 120) | Average of percent UPC change day 30 [1] | Average of percent UPC change day 60 [1] | Average of percent UPC change day 90 [1] | Average of percent UPC change day 120 ([1]; day 120) | subjects experiencing an increase in proteinuria despite therapy ([2]; 3/14 subjects) | subjects with clinically significant (i.e., 50%) reduction in proteinuria ([2]; 9/14 subjects)
1 | CCOC(=O)[C@H](CCc1ccccc1)N[C@@H](C)C(=O)N1CCC[C@H]1C(=O)O [Enalapril, enalapril] | −1.075 | −1.260 | −1.194 | 29.4% | −0.30 | −0.79 | −1.05 | −2.97 | −0.71 | −1.02 | −0.68 | −0.92 | −27.34% | −37.56% | −30.57% | −75.14^1% | 22% | 64%
2 | CCCc1nc2c(C)cc(-c3nc4ccccc4n3C)cc2n1Cc1ccc(-c2ccccc2C(=O)O)cc1 [Telmisartan, telmisartan] | −2,516 | −3.769 | −4.341 | 80% | −4.20 | −4.83 | −4.83 | −5.84 | −1.82 | −2.81 | −2.01 |  | −57.01% | −65.87% | −68.79% | −76.70^2% |  | 

From patent US20220218671A1 (BOEHRINGER INGELHEIM VETMEDICA GMBH, priority 2019, published 2022)
